Assay results published in publication PMC10836395, “Investigation of how gate residues in the main channel affect the catalytic activity of Scytalidium thermophilum catalase” (Acta Crystallographica. Section D, Structural Biology, 2024).
Marks after values point to notes of the source that are not given here.

Key:
CATPO E484I variant [1] = target: T1, CATPO E484I variant (Scytalidium thermophilum (Humicola insolens), UniProt M4GGR5, E503I); type: biochemical; conditions: for K m: pH 7.0 (ABTS pH 5.0), 60°C
T1 sequence (M4GGR5 entry or part of it E503I): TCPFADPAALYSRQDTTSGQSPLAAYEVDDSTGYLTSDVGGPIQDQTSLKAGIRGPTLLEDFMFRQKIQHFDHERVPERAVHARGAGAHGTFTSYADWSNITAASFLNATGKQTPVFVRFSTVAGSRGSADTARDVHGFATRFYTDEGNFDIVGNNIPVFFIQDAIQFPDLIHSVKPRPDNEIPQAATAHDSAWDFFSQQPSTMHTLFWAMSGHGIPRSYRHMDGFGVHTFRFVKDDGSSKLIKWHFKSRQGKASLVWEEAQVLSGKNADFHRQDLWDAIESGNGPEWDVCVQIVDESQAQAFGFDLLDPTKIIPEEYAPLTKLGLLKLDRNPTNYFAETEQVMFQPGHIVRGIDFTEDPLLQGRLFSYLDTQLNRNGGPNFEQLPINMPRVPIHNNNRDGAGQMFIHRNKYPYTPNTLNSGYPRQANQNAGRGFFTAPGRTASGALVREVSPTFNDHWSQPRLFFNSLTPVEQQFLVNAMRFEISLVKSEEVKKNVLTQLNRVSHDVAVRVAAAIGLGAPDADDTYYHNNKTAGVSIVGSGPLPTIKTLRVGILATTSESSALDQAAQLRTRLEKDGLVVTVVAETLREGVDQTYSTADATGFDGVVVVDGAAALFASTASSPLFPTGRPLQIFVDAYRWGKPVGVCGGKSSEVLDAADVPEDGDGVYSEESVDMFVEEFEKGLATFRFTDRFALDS

CATPO T188A variant [2] = target: T2, CATPO T188A variant (Scytalidium thermophilum (Humicola insolens), UniProt M4GGR5, T207A); experiment: biochemical; conditions: catechol oxidation by T188A; read-out: K i
T2 sequence (M4GGR5 entry or part of it T207A): as the sequence (M4GGR5 entry or part of it E503I) above

CATPO T188F variant [3] = target: T3, CATPO T188F variant (Scytalidium thermophilum (Humicola insolens), UniProt M4GGR5, T207F); experiment: biochemical; conditions: catechol oxidation by T188F; read-out: K i
T3 sequence (M4GGR5 entry or part of it T207F): as the sequence (M4GGR5 entry or part of it E503I) above

CATPO T188I variant = CATPO T188I variant (Scytalidium thermophilum (Humicola insolens), UniProt M4GGR5, T207I); type: biochemical; conditions: for K m: pH 7.0 (ABTS pH 5.0), 60°C
Sequence of CATPO T188I variant (M4GGR5 entry or part of it T207I): as the sequence (M4GGR5 entry or part of it E503I) above

CATPO T188D variant [4] = target: T4, CATPO T188D variant (Scytalidium thermophilum (Humicola insolens), UniProt M4GGR5, T207D); experiment: biochemical; conditions: catechol oxidation by T188D; read-out: K i
T4 sequence (M4GGR5 entry or part of it T207D): as the sequence (M4GGR5 entry or part of it E503I) above

CATPO E484A variant [5] = target: T5, CATPO E484A variant (Scytalidium thermophilum (Humicola insolens), UniProt M4GGR5, E503A); experiment: biochemical; conditions: catechol oxidation by E484A; read-out: K i
T5 sequence (M4GGR5 entry or part of it E503A): as the sequence (M4GGR5 entry or part of it E503I) above

CATPO E484I variant [6] = target: T1, CATPO E484I variant; experiment: biochemical; conditions: catechol oxidation by E484I; read-out: K i
CATPO [7] = target: T6, CATPO (Scytalidium thermophilum (Humicola insolens), UniProt M4GGR5); experiment: Substrate-specificity analysis of the phenol oxidase activity; type: biochemical; conditions: for K m: pH 7.0 (ABTS pH 5.0), 60°C
T6 sequence (M4GGR5 entry or part of it): as the sequence (M4GGR5 entry or part of it E503I) above

CATPO T188F variant [8] = target: T3, CATPO T188F variant; type: biochemical; conditions: for K m: pH 7.0 (ABTS pH 5.0), 60°C
CATPO E484D variant [9] = target: T7, CATPO E484D variant (Scytalidium thermophilum (Humicola insolens), UniProt M4GGR5, E503D); type: biochemical; conditions: for K m: pH 7.0 (ABTS pH 5.0), 60°C
T7 sequence (M4GGR5 entry or part of it E503D): as the sequence (M4GGR5 entry or part of it E503I) above

CATPO E484D variant [10] = target: T7, CATPO E484D variant; experiment: biochemical; conditions: catechol oxidation by E484D; read-out: K i
CATPO T188A variant [11] = target: T2, CATPO T188A variant; type: biochemical; conditions: for K m: pH 7.0 (ABTS pH 5.0), 60°C
CATPO E484A variant [12] = target: T5, CATPO E484A variant; experiment: Substrate-specificity analysis of the phenol oxidase activity; type: biochemical; conditions: for K m: pH 7.0 (ABTS pH 5.0), 60°C
CATPO T188D variant [13] = target: T4, CATPO T188D variant; type: biochemical; conditions: for K m: pH 7.0 (ABTS pH 5.0), 60°C
CATPO [14] = target: T6, CATPO; experiment: Inhibition of catechol oxidation; type: biochemical; conditions: catechol oxidation by CATPO; catechol 1 to 100 mM; read-out: K i

SMILES | V max (CATPO E484I variant [1]) | k cat/K m (CATPO E484I variant [1]) | K m (CATPO E484I variant [1]) | V max (CATPO T188I variant) | k cat/K m (CATPO T188I variant) | K m (CATPO T188I variant) | V max (CATPO [7]) | k cat/K m (CATPO [7]) | K m (CATPO [7]) | V max (CATPO T188F variant [8]) | k cat/K m (CATPO T188F variant [8]) | K m (CATPO T188F variant [8]) | V max (CATPO E484D variant [9]) | k cat/K m (CATPO E484D variant [9]) | K m (CATPO E484D variant [9]) | V max (CATPO T188A variant [11]) | k cat/K m (CATPO T188A variant [11]) | K m (CATPO T188A variant [11]) | V max (CATPO E484A variant [12]) | k cat/K m (CATPO E484A variant [12]) | other results
CCn1c(=NN=c2sc3cc(S(=O)(=O)O)ccc3n2CC)sc2cc(S(=O)(=O)O)ccc21 [ABTS, 2,2′-azino-bis(3-ethylbenzthiazoline-6-sulfonic acid)] | 4600 ± 98 mM/min | 170 ± 10 s^−1 M^−1 (×10^2) | 50 ± 0.5 mM | 6000 ± 100 mM/min | 190 ± 18 s^−1 M^−1 (×10^2) | 48 ± 0.7 mM | 5620 ± 250 mM/min | 590 ± 20 s^−1 M^−1 (×10^2) | 50 ± 1.5 mM | 6600 ± 120 mM/min | 270 ± 25 s^−1 M^−1 (×10^2) | 45 ± 0.5 mM | 5500 ± 132 mM/min | 100 ± 10 s^−1 M^−1 (×10^2) | 53 ± 1.0 mM | 5000 ± 100 mM/min | 90 ± 5 s^−1 M^−1 (×10^2) | 52 ± 0.8 mM | 8600 ± 220 mM/min | 300 ± 10 s^−1 M^−1 (×10^2) | Ki (CATPO T188A variant [2]): 12 ± 1.2 mM; Ki (CATPO T188F variant [3]): 84 ± 7 mM; Ki (CATPO T188D variant [4]): 81 ± 1 mM; Ki (CATPO E484A variant [5]): 96 ± 5.4 mM; Ki (CATPO E484I variant [6]): 81 ± 8 mM; Ki (CATPO E484D variant [10]): 12 ± 1.2 mM; K m (CATPO E484A variant [12]): 46 ± 1.0 mM; V max (CATPO T188D variant [13]): 4000 ± 88 mM/min; k cat/K m (CATPO T188D variant [13]): 200 ± 25 s^−1 M^−1 (×10^2); K m (CATPO T188D variant [13]): 55 ± 1.0 mM; Ki (CATPO [14]): 11 ± 1 mM
Oc1ccccc1O [Catechol, catechol] | 50000 ± 1988 mM/min | 8800 ± 72 s^−1 M^−1 (×10^2) | 30 ± 1.0 mM | 65000 ± 1100 mM/min | 9200 ± 45 s^−1 M^−1 (×10^2) | 31 ± 0.5 mM | 25000 ± 763 mM/min | 2200 ± 130 s^−1 M^−1 (×10^2) | 33 ± 0.5 mM | 70000 ± 1290 mM/min | 10200 ± 220 s^−1 M^−1 (×10^2) | 30 ± 1.0 mM | 23000 ± 1500 mM/min | 2100 ± 105 s^−1 M^−1 (×10^2) | 35 ± 0.5 mM | 22500 ± 1000 mM/min | 2000 ± 120 s^−1 M^−1 (×10^2) | 33 ± 0.5 mM | 88000 ± 880 mM/min | 14500 ± 130 s^−1 M^−1 (×10^2) | K m (CATPO E484A variant [12]): 30 ± 1.0 mM; V max (CATPO T188D variant [13]): 40000 ± 4000 mM/min; k cat/K m (CATPO T188D variant [13]): 8900 ± 70 s^−1 M^−1 (×10^2); K m (CATPO T188D variant [13]): 25 ± 1.5 mM
